The subject of assay [1] is Hmgsc2 mRNA. The assay can be described thus: Hmgsc2 mRNA in bortezomib resistant cells. The class given is cell-based. Particulars: vs control shRNA. The source says:
As shown in the data the control levels of Hmgsc2 are quite high in the control and low in the other samples.
The effects of Hmgsc2 expression in bortezomib resistant cells was examined to determine if Hmgsc2 would be a good therapeutic target for the treatment of NF-kB regulated lung cancers. […] As shown in the data the control levels of Hmgsc2 are quite high in the control and low in the other samples.

Assay [2] concerns IKK kinase activity. To be noted: cited from earlier work.
The subject of assay [3] is KP and KP^M cells. Kind of assay: Cleaved caspase 3 (CC3) immunoblot in lung adenocarcinoma cells. The class given is cell-based, mouse. Particulars: KP cell lines, 10IJM Bay-117082, 48 hours. As for the experimental part:
(§1) FIG. 1. Bortezomib inhibits NF-κB signaling and induces apoptosis in murine lung adenocarcinoma cell lines. (1A) reduction of nuclear p65 level by bortezomib. Two KP (KrasLSL-G12D/wt;p53flox/flox) cell lines (KP1 and KP2) were treated with 5 nM bortezomib (BZ) or vehicle control (ctrl) for 24 hours. Nuclear (N) and cytoplasmic (C) fractions of protein lysates were immunoblotted with the indicated antibodies. NEMO and Parp serve as cytoplasmic and nuclear loading controls, respectively. (1B) quantitative PCR analysis of a subset of NF-κB target genes in 5 nM bortezomib (BZ)-treated KP cells at the indicated time points. Vehicle control is set to 1. (1C) apoptosis in KP and KP^M (KrasLSL-G12D/wt;p53R127H/−) cells induced by bortezomib. Cells were pre-treated with 5 nM bortezomib for 24 hours, and protein lysates were immunoblotted with CC3 and tubulin antibodies. (1D) quantification of cell death in bortezomib-treated cells. Cells were treated with the indicated concentrations of bortezomib for 24 hours, and dead cells were quantified by Trypan blue staining. Error bars are SD (n=3).
FIG. 17: Bay-117082 induces cell death In KP cells. […] (17B) Bay-117082 induces apoptosis in KP cells. Cells were treated with 10IJM Bay-117082 for 48 hours. Protein lysates were immunoblotted with cleaved caspase 3 (CC3) and Tubulin antibodies.
Cell pellets were lysed in Laemmli buffer. […]
For orientation: In western blotting, separated proteins are transferred to a membrane and probed.

For assay [4], the system named is KP and KP^M cell lines. Kind of assay: Cell viability assay (Cell Titer Aqueous Kit). The class given is cell-based, mouse. Particulars: KP cell lines, increasing doses of Bay-117082, 48 hours. As for the experimental part:
FIG. 2: Bortezomib sensitivity correlates with basal NF-κB activity in KP lung adenocarcinoma cell lines. […] 3TZ, diamond; LKR13, triangle; KP, solid lines; KPM, dashed lines. Error bars are SD (n=3). (2B) lung cancer cell lines with high basal NF-κB activity were sensitive to bortezomib. NF-κB p65 DNA-binding activity was determined by ELISA from nuclear extracts of KP cell lines and LKR13 cells (set as 1). Relative viability was measured after 5 nM bortezomib treatment, as in 2A. FIG. 17: Bay-117082 induces cell death In KP cells. […] (17B) Bay-117082 induces apoptosis in KP cells. Cells were treated with 10IJM Bay-117082 for 48 hours. […] Cell culture conditions were as described recently (30).

Assay [5] has as its system stress-activated protein kinases, p38 and JNK-1. To be noted: cited from earlier work.
Assay [6] deals with NF-κB target genes. Kind of assay: Quantitative PCR of NF-κB target genes in KP cells. The assay is classed as cell-based, mouse. The protocol:
as §1
(§2) FIG. 7: The NF-κB inhibitor Bay-117082 leads to lung tumor regression in vivo. (7A) quantitative PCR analysis of NF-κB target gene expression in KP cells treated with 10 μM Bay-117082 for indicated hours. Error bars are SD (n=3). (7B) Bay-117082 treatment leads to lung tumor regression and delays tumor progression in the orthotopic lung tumor model. A total of 50,000 luciferase-tagged KP cells were transplanted into recipient mice (n=6), and treatment was started at 19 days after transplantation (set at D0). Mice were treated with vehicle control or 10 mg/kg Bay-117082 by i.p. injection, and imaged at the indicated time points. Arrows indicate Bay-117082 injections. (7C) Bay-117082 prolongs survival in the KP model (n=6; P=0.008). “i.p. dosing” indicates treatment with 3 doses per week.
RNA was purified using TRIzol (Invitrogen), according to the manufacturer's instructions. One microgram of RNA was reverse transcribed using the High-Capacity cDNA Reverse Transcription Kit (Applied Biosystems). Real-time PCR (quantitative PCR) amplification was performed using Taqman probes (Applied Biosystems). Data were normalized to the Gapdh (mouse) or GAPDH (human) levels.

Assay [7] has as its system luciferase-tagged KP cells transplanted into immunocompetent recipient mice. The assay can be described thus: Orthotopic lung tumor model, survival and bioluminescence imaging. The assay is classed as in vivo, mouse.
Text: FIG. 6: Imaging bortezomib response and resistance in an orthotopic lung tumor model. (6A) experimental design. Lung cancer cells derived from KP tumors were infected with a retrovirus expressing luciferase and transplanted into immunocompetent recipient mice by tail vein injection. (6B) Kaplan-Meier survival curve of control and bortezomib-treated recipient mice (n=6; P=1.4×10−5). A total of 10,000 cells were transplanted, and treatment started after 35 days. (6C) representative bioluminescence imaging of recipient mice (n=6) treated with vehicle control or bortezomib, as in 6B. D0 refers to the first treatment. Arrows indicate weekly bortezomib regimen.
as §2
At indicated time points, mice were scanned for 15 min under isoflurane anesthesia, using a small animal eXplore Locus microCT (GE Healthcare) at 45-μm resolution, 80 kV, with 450-mA current (47). Images were acquired and processed using GE eXplore software. Bioluminescence imaging was performed as previously described (48). Mice were imaged for 60 seconds, and signals in the lung were quantified using Xenogen software.
To facilitate imaging of the bortezomib treatment response, we adapted a transplantation-based orthotopic lung cancer mouse model (37). As outlined in FIG. 6A, we infected KP cell lines with a retrovirus expressing firefly luciferase. The cells were transplanted into immunocompetent recipient mice by i.v. injection, resulting in the development of in situ lung tumors that could be imaged and quantified by bioluminescence imaging.
To determine whether bortezomib therapy was effective in the orthotopic model, we transplanted 10,000 KP cells into host mice and treated the mice 5 weeks later, either with control or with a weekly 4-dose regimen of bortezomib (37).

In assay [8] the test system is KP mice. Kind of assay: Kaplan-Meier survival of KP mice. The assay is classed as in vivo, mouse. To be noted: KP mice 8 weeks post Adeno-Cre, Bay-117082 10 mg/kg i.p. 3 times per week for 4 weeks; control 79.0±13.2 days; P=0.008.
Protocol: (5A and 5B) Kaplan-Meier survival curve of vehicle control and bortezomib-treated KP (5A) and K (5B) mice. Arrows indicate weekly 1 mg/kg bortezomib regimen. […] Arrows indicate bortezomib injection.
To initiate lung tumors, cohorts of K or KP mice of 129svJae background were infected with 2.5×10^7 plaque-forming units of Adeno-Cre (University of Iowa) by intranasal inhalation, as described previously (2, 28). Mice were given bortezomib (LC Labs) in PBS [0.5% dimethylsulfoxide (DMSO)] at 1 mg/kg body weight i.v., as indicated.
To analyze the long-term effects of bortezomib therapy, we investigated whether a 4-dose regimen of bortezomib (19) could prolong survival of tumor-bearing mice. Using a cohort of KP mice, we treated tumor-bearing animals 8 weeks after Adeno-Cre infection with bortezomib once a week for 4 weeks (FIG. 10A).

On to “insulin: positive control; represses Hmgcs2”, for which the “relative amount of Hmgsc2 mRNA” value in assay [1] is reported as “low”.

Turning to `Cc1ccc(S(=O)(=O)/C=C/C#N)cc1` [Bay-117082], in assay [2], the IKK kinase activity result is reported as “inhibits”. For the same compound, the “caspase 3 cleavage” value in assay [3] is on record as “induced caspase 3 cleavage”. In addition, the “cell death (relative cell viability)” value in assay [4] is listed as “cell death”. The “effect on stress-activated protein kinases p38 and JNK-1” value in assay [5] is on record as “stimulate”. Further, the “Xiap inhibition, Bay-117082 compared with bortezomib” value in assay [6] (KP cells in vitro, FIG. 1B and FIG. 7A) was “stronger”. Further, the “expression of prosurvival NF-κB target genes such as Bcl2, Bclx1, Xiap” value in assay [6] (KP cells, 10 μM Bay-117082, indicated hours) was “downregulates”. The “lung tumor signal in the initial phase” value in assay [7] (50,000 luciferase-tagged KP cells, 10 mg/kg Bay-117082 i.p., 0-9 days) is “significantly reduced lung tumor signal”. For the same compound, in assay [7] (orthotopic model, 10 mg/kg Bay-117082 i.p.), the lung tumor progression result was “delayed lung tumor progression until 42 days”. In assay [7] (orthotopic model, 42-63 days), the “tumor response under continuous treatment” value is “eventually became refractory to therapy”. This compound also registered a survival in assay [8] of 120.2 ± 27.0 days.

(Values after US20150150892A1, “METHODS AND PRODUCTS RELATED TO LUNG CANCER” (Massachusetts Institute of Technology, priority 2012, published 2015).)
